Bounds are passed on as bounds.

One may read the melting point as the temperature of the solid-liquid transition. Take `O=C(NCCOc1cccnn1)C1Cc2ccccc2N1S(=O)(=O)c1ccc(-c2cccc(C(F)(F)F)c2)cc1` (stereo not drawn): the melting point lay within 65 to 71 °C.
Take `NS(=O)(=O)CCCCCSc1ccc2nccn2n1`: the melting point lay within 120 to 121 °C.
In the case of `O=[N+]([O-])c1ccccc1N1CCN(c2ccccc2)CCN1`, the melting point was in the range of 119 to 121 °C.
As for `COc1ccc2c3c1OC1C(=O)C(C)CC4(OC)C(C2)N(C)CCC314` (stereo not drawn), the figure is 215 to 221 °C; as for `CCOc1cc(OCCOCc2ccccc2)cc2c1C(=O)N(COC(=O)c1c(Cl)cccc1Cl)S2(=O)=O`, 121 to 122 °C; as for `FC(F)(F)c1ccc2nc(-c3csc(Nc4ncccc4Cl)n3)[nH]c2c1`, 207 to 208 °C.
`O=C(CCC1CCCCC1)NC1N=C(c2ccccc2)c2ccccc2-n2c1noc2=O` (stereo not drawn) registered a melting point of 226 °C.
The molecule `CCn1nnnc1CCC1(C)Cn2cc([N+](=O)[O-])nc2O1` (stereo not drawn) came in with a melting point of 135 to 137 °C.
`CC(C)n1nc(-c2c(-c3ccccc3)nn3ccc(OCc4ccccc4)cc23)ccc1=O`: the melting point worked out at 168 °C.
As for `Cc1cc(-c2cccc(C(F)(F)F)c2)c2ncc(C(F)(F)F)nc2c1`, the figure is 93 to 94 °C; as for `O=C(Nc1ccc2ccc(Cl)nc2n1)c1ccccn1`, 319 °C.
For `CCOC(=O)CC[C@@H](C(=O)OCC)N1C(=O)c2ccc([N+](=O)[O-])cc2C1=O`, the melting point is 65.5 to 66.5 °C.
In turn, `COc1cn(-c2ccc(N3CCC(F)(F)CC3)cc2F)nc(-c2ccnn2-c2ccccc2)c1=O` had a melting point of 192 to 194 °C.
`COC(=O)c1ccc2scc(Cl)c2n1`: the melting point fell in the range of 126 to 127 °C.
On to `N#Cc1cc(C(=O)Nc2cncnc2Cl)ccc1Cl`, for which the melting point fell in the range of 189 to 190 °C.
Take `COc1ccccc1C1OC2(CCNCC2)N2CCCCC12` (stereo not drawn): the melting point lay in the range of 185 to 186 °C.
As for `CN1CCC(=C2c3ccccc3CC(=O)c3ccccc32)CC1`, the figure is 138 to 140 °C; as for `O=C1Nc2ccc(F)cc2C(CCc2ccccc2)(C(F)(F)F)N1` (racemic), 98 °C.
`Clc1cc(NC2CCCC2)nc(NC2CCCC2)n1` came in with a melting point of 94 to 98 °C.
Molecule `COc1ccc2cc(C(C)C(=O)O)ccc2c1Br` (stereo not drawn) showed a melting point of 149 to 151 °C.
The molecule `CCOC(=O)Cc1cccc(NC=O)n1` returned a melting point of 35 to 38 °C.
Molecule `CC(C)C1(C)C(=O)NC2(O)c3ncccc3C(=O)N21` (stereo not drawn) had a melting point of 151 to 153 °C.
Consider `CCCCCCOc1ccc2[nH]c(C)c(CC(=O)O)c2c1`, for which the melting point lay in the range of 65 to 67 °C.
As for `COC(=O)c1ccc2ncc(C(=S)NCc3ccc(Cl)cc3)c(O)c2c1`, the figure is 259 to 261 °C.
`O=C(c1ccc(F)cc1)C1CCN(S(=O)(=O)c2ccccc2)CC1` yielded a melting point of 106 to 109 °C.
For the molecule `COC(=O)c1ccc(NC(C)=O)c([N+](=O)[O-])c1`, the melting point lay within 123 to 124 °C.
Take `Cc1oc(-c2ccc(C(F)(F)F)cc2)nc1COc1cccc(C#CC(C)n2oc(=O)[nH]c2=O)c1` (stereo not drawn): the melting point fell in the range of 84 to 86 °C.
For `CC(=O)OCC1OC(OC2C(COC(C)=O)OC(Sc3ccc(N)cc3)C(OC(C)=O)C2OC(C)=O)C(OC(C)=O)C(OC(C)=O)C1OC(C)=O` (stereo not drawn), the melting point fell in the range of 145 to 148 °C.
Molecule `CCSc1nc2c(C)sc(C(=O)O)c2n1Cc1ccc(-c2ccccc2-c2nc(=O)[nH]o2)cc1` displayed a melting point of 144 to 147 °C.
`CCOC(=O)c1cc2cc(CC)ccc2[nH]1` registered a melting point of 94 °C.
`Brc1ccc(OCc2ccc3ccccc3n2)cc1` had a melting point of 103 to 105 °C.
Take `COc1ccc(N2CCN(c3c(C)c(C)c4c(c3C)C(N3CCCC3)C(C)(C)O4)CC2)cc1` (stereo not drawn): the melting point fell in the range of 124 to 126 °C.
Consider `CC(C)(C)OC(=O)NC(Cc1ccc(CO)cc1)c1cccnc1` (stereo not drawn), for which the melting point is 130 °C.
`COc1ccc(C(O)CNCCN)cc1` (stereo not drawn) showed a melting point of 68 °C.
Molecule `CC(CCCCCC(C)NC(=O)c1ccc(OC(F)(F)F)cc1)NC(=O)c1ccc(OC(F)(F)F)cc1` (stereo not drawn) showed a melting point of 156 to 160 °C.
In turn, `CO/N=C1\CCCC[C@@H]1NC(=O)c1cc(-c2ccc(Cl)cc2)c(O[C@@H](C)C(F)(F)F)cn1` showed a melting point of 123 to 125 °C.
Turning to `CN(CC(O)[C@H](Cc1ccccc1)NC(=O)c1ccccc1)C(=O)N1CCC[C@H]1C(=O)O` (stereo partly drawn), the melting point was in the range of 108 to 117 °C.
`O=C(O)c1cc2ccc(C3OC(CO)C(O)C(O)C3O)cc2oc1=O` (stereo not drawn) returned a melting point of 250 to 255 °C.
The molecule `O=C(O)c1cc(Br)cc([N+](=O)[O-])c1Br` had a melting point of 225 to 229 °C.
Regarding `O=C(CCCCCCOc1ccccc1)c1nnc(COCc2ccccc2)o1`, the melting point lay in the range of 61 to 63 °C.
Under `O=C(O)CCOc1cccc2c1Cc1sc(SCCC(c3ccccc3)c3ccccc3)nc1-2` stands 113 to 114 °C; under `CC(S)C(=O)Nc1ccc(C2=NNC(=O)CC2C)cc1` (stereo not drawn), 236 to 237 °C.
`COc1ccc(Cn2ncc3c4c(cnc32)CN(C(=O)Nc2ccccc2)CC4)cc1` registered a melting point of over 65 °C.
The molecule `Cc1c(Cl)csc1-c1nc(-c2c(F)cccc2Cl)nn1C` had a melting point of 117 to 118 °C.
Molecule `CC(=O)SCC(Cc1ccccc1)C(=O)NC(CCCNC(=N)N)C(=O)O` (stereo not drawn) displayed a melting point of 253 to 295 °C.
As for `CCCCCC[C@H](C)Oc1ccc(-c2ccc(O)cc2)cc1`, the figure is 100 °C; as for `CC1=NN=C(c2ccc([N+](=O)[O-])cc2)c2cc(Cl)c(Cl)cc2C1`, 231 to 233 °C; as for `CC(=O)NC(C)(C)c1ccc(CN2CCN(c3nccs3)CC2)cc1`, 118 to 120 °C.
`COc1ccc(C(=O)C=Cc2ccccc2[N+](=O)[O-])c(OC)c1OC` had a melting point of 107 to 108 °C.
For the molecule `O=C1C(=O)N(CCN2CCN(Cc3ccc(F)cc3)CC2)c2ccccc21`, the melting point lay within 146 to 147 °C.
As for `CCc1noc(-c2cc3c4cc(N(C)C)ccc4n(CCCCl)c3cn2)n1`, the figure is 183 to 186 °C; as for `CCCCCCCCCCCCCCOC(=O)CCC(=O)CCC(=O)OCC`, 43 °C.
The molecule `CC1=C(C#N)C(c2cccc([N+](=O)[O-])c2)C(c2nc(CCl)no2)=C(C)N1` (stereo not drawn) yielded a melting point of 204 to 206 °C.
On to `CCOC(=O)C1=C(NC(=O)Nc2cc(C(=O)OC(C)C)c(Br)cc2Br)CCC1`, for which the melting point was 157 to 158 °C.
The molecule `CCOP(=O)(Cc1nnc2c(=O)[nH]c3ccc(Cl)cc3n12)OCC` yielded a melting point of 223 to 227 °C.
`CC(=O)Nc1cccc(Oc2c(N)cc(C(=O)O)cc2S(N)(=O)=O)c1` registered a melting point of 295 °C.
Molecule `O=C(O)C1COc2ccc(Cl)c(Cl)c2O1` (stereo not drawn) registered a melting point of 144 to 148 °C.
Turning to `CCOCn1c(C(OC(C)=O)c2ccccc2)c(C(C)C)c(=O)[nH]c1=O` (stereo not drawn), the melting point is 158 °C.
As for `CCCCCCc1cc2c(s1)NC(=O)C(C)N=C2c1ccccc1C` (stereo not drawn), the figure is 173 to 175 °C; as for `COc1sc(S(=O)(=O)C[N+](=O)[O-])cc1Br`, 120 to 121 °C; as for `Cc1cc(Cl)cc(Cl)c1OC(=O)c1ccc(CCl)cc1`, 74 to 75 °C.
As to `COc1cc(OCc2ccccn2)ccc1/C=C/c1cc(/C=C/c2c[nH]c3ncccc23)n[nH]1`, the melting point is 219 to 223 °C.
As for `NS(=O)(=O)c1ccc(-n2nc(C(F)(F)F)cc2-c2ccc(Cl)cc2)cc1`, the melting point was 126 to 128 °C.
The molecule `Brc1cccc(C2Cc3cnc(Nc4ccc(CCN5CCOCC5)cc4)nc3-c3ccccc32)c1` (stereo not drawn) registered a melting point of 86 to 88 °C.
In turn, `CC(C)(C)c1ccc(-n2cnnc2C(F)(F)F)cc1` had a melting point of 134 °C.
Take `O=C(O)CCCc1cc2nc(Cl)ccc2n1S(=O)(=O)c1cccc(C(F)(F)F)c1`: the melting point came to 188 °C.
Molecule `Fc1ccc2c(-c3cccc(OC[C@@H]4CO4)c3)noc2c1` yielded a melting point of 83 to 84 °C.
Regarding `CCc1ccc(Nc2c(C(=O)NOCCO)ccc(F)c2F)c(Cl)c1`, the melting point lay within 142 to 145 °C.
Turning to `O=C1C(=O)c2ccccc2C2=C1SCC1(CCN(c3cc(Cl)ncn3)CC1)O2`, the melting point lay within 172 to 174 °C.
Under `CC(C)CN1N(C)Nc2c3ncnc-3c3ccncc3n21` stands 157 to 158 °C.
`Cc1cc(C)n(C(=O)C(Cc2ccccc2)NS(=O)(=O)c2ccc(Cl)cc2)n1` (stereo not drawn) gave a melting point of 137 to 138 °C.
As for `Cc1cc(F)cc(C=O)c1O`, the figure is 49 to 52 °C.
Molecule `O=C(c1ccc(O)cc1)c1cc(C(=O)c2ccc(O)cc2)cc([N+](=O)[O-])c1` returned a melting point of 230 to 232 °C.
`O=C(N(Cc1cccnc1)c1ccc(F)cc1)C(F)(F)F` displayed a melting point of 97 to 98 °C.
As to `CCc1cc(CO)nn1-c1ccc([N+](=O)[O-])cc1`, the melting point is 151 to 152 °C.
On to `Cn1nnnc1-c1cn(C)c2cc(S(C)=O)ccc2c1=O` (stereo not drawn), for which the melting point lay in the range of 237 to 240 °C.
Under `CNCc1ccc(-c2cc3ncnc(Nc4ccc5[nH]ccc5c4)c3s2)cc1` stands 140 to 147 °C; under `O=[N+]([O-])c1cccc(/C=C/c2nc(C3CCCCC3)cs2)c1`, 102 to 104 °C; under `CC1(C)C(C=CC(=O)Cl)C1C(=O)OC(C#N)c1cccc(Oc2ccccc2)c1` (stereo not drawn), 86 °C.
On to `CCCCCCCCCCCCCCOc1cccc(C(=O)N(CC(=O)OC)CC(=O)OC)c1`, for which the melting point was under 23 °C.
As for `CCCc1c(OS(=O)(=O)N(C)C)cc2oc3cc(Cl)cn3c(=O)c2c1O`, the figure is 159 to 160 °C.
`CN(CCN1C(=O)c2ccccc2C(C)(C)C1=O)CCN1C(=O)c2ccccc2C(C)(C)C1=O`: the melting point lay within 106 to 107 °C.
`O=[N+]([O-])c1c(O)c(O)cc2c1C(=NO)CC2` came in with a melting point of 200 to 201 °C.
In the case of `Cn1c([N+](=O)[O-])cnc1C1=NOC2CCCC12` (stereo not drawn), the melting point was in the range of 89.5 to 91.5 °C.
With `CN1COC(CC23CCC(c4ccccc42)c2ccccc23)C1` (stereo not drawn), the melting point fell in the range of 106 to 109 °C.
Molecule `CCCc1cc(C)c(OCCO)c(C(Nc2ccc(C(=N)N)cc2)C(=O)O)c1` (racemic) had a melting point of 230 °C.
The molecule `O=C(NCC1Cc2c(Cl)cc3c(c2O1)CCC3)OCc1ccccc1` (stereo not drawn) had a melting point of 127 to 130 °C.
As for `CN1CCC(C2Cc3c(O)cccc3C(=O)N2)CC1` (stereo not drawn), the figure is 216 to 218 °C.

For the origin of these results see a melting point compilation (Tetko et al.; mined from patent text by program, amines drawn as free bases though some values may be those of a salt).
